Reference: ChEMBL document CHEMBL5465560, “Selectivity Literature for EUbOPEN Chemogenomic Library” (2024)
One block for each compound: values may come before it.

What was measured:
[1] = target: Serine/threonine-protein kinase mTOR (Homo sapiens, UniProt P42345); assay: Selectivity interaction (Kinase panel (Z-LYTE Assay)) EUB0001632a MTOR; details: at 10 µM
[2] = target: T1, Dual specificity mitogen-activated protein kinase kinase 5 (Homo sapiens) (UniProt Q13163); assay: Selectivity interaction (KinomeScan (DiscoverX)) EUB0000666a MAP2K5; details: at 10 µM
T1 sequence (whole entry): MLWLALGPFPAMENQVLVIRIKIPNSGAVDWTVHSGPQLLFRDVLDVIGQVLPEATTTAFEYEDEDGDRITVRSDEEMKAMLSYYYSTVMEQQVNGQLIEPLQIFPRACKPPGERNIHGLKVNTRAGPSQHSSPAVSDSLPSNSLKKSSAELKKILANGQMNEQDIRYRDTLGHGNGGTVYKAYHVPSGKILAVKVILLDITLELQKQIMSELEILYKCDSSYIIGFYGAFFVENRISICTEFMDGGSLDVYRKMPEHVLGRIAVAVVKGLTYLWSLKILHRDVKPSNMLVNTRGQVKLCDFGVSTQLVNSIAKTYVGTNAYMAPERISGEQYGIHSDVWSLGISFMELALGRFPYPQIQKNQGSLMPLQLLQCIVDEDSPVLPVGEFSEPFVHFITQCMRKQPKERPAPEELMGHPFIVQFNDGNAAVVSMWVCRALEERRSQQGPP

[3] = target: Histamine H2 receptor (Homo sapiens) (UniProt P25021); assay: Selectivity interaction (Panel of non-epigenetic targets (kinases, GPCRs, ion channels, and transporters, Eurofins) ) EUB0000271b HRH2; details: at 1 µM
[4] = target: T2, Serine/threonine-protein kinase RIO1 (Homo sapiens) (UniProt Q9BRS2); assay: Selectivity interaction (KinomeScan (DiscoverX)) EUB0001049a RIOK1; details: at 1 µM
T2 sequence (whole entry): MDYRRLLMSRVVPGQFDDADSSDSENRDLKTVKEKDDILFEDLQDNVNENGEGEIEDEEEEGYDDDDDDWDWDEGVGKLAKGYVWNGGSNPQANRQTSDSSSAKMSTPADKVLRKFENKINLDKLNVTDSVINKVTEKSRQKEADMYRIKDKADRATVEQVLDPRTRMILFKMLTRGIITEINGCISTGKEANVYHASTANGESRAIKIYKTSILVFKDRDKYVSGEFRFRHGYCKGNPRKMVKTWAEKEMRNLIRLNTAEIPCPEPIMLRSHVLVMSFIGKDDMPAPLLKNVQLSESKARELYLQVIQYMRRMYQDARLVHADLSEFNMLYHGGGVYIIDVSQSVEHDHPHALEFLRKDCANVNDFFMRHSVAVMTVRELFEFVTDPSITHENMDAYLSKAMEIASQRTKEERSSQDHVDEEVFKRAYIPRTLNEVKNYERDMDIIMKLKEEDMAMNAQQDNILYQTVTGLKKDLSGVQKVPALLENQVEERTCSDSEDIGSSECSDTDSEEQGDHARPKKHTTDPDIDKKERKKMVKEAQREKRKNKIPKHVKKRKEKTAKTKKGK

[5] = target: T3, Ankyrin repeat and protein kinase domain-containing protein 1 (Homo sapiens) (UniProt Q8NFD2); assay: Selectivity interaction (Ambit KINOMEscan and KiNATiv profiling in Jurkat cells) EUB0000090b ANKK1; assay type: cell-based; details: at 1 µM
T3 sequence (whole entry): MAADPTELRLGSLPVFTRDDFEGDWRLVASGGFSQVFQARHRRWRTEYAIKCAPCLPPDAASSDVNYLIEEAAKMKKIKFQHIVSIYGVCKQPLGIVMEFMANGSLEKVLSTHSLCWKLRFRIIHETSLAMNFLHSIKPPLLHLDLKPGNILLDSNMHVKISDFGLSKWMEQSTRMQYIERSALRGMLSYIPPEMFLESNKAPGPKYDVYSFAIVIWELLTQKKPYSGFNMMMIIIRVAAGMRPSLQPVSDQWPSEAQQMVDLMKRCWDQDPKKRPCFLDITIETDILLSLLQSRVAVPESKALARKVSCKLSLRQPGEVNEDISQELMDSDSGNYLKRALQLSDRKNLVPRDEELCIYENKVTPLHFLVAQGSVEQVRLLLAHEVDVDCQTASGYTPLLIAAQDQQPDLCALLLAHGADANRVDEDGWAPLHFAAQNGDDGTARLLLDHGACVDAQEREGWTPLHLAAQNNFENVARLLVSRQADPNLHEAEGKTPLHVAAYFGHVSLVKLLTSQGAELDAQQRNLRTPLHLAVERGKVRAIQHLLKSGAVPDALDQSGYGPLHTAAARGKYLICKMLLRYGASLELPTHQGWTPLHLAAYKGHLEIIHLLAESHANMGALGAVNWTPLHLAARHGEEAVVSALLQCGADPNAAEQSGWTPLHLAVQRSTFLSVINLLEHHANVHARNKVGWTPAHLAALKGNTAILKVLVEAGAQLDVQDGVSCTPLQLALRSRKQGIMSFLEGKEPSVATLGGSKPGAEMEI

[6] = target: T4, Mitogen-activated protein kinase 12 (Homo sapiens) (UniProt P53778); assay: Selectivity interaction (KinomeScan (DiscoverX)) EUB0000092b MAPK12; details: at 10 µM
T4 sequence (whole entry): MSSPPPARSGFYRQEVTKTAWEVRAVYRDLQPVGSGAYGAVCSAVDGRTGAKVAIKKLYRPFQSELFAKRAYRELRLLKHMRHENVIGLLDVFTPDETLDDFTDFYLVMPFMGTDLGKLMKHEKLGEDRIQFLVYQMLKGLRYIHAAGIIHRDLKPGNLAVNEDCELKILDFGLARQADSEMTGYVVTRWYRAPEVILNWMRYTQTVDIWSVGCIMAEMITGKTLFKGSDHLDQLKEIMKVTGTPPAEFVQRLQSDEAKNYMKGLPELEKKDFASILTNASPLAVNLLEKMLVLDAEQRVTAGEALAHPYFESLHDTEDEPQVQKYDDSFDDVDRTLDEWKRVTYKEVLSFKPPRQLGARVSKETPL

[7] = target: Protein kinase C eta type (Homo sapiens) (UniProt P24723); details: at 10 µM
[8] = target: T5, Calcium/calmodulin-dependent protein kinase type IV (Homo sapiens) (UniProt Q16566); assay: Selectivity interaction (KinomeScan (DiscoverX)) EUB0000618a CAMK4; details: at 10 µM
T5 sequence (whole entry): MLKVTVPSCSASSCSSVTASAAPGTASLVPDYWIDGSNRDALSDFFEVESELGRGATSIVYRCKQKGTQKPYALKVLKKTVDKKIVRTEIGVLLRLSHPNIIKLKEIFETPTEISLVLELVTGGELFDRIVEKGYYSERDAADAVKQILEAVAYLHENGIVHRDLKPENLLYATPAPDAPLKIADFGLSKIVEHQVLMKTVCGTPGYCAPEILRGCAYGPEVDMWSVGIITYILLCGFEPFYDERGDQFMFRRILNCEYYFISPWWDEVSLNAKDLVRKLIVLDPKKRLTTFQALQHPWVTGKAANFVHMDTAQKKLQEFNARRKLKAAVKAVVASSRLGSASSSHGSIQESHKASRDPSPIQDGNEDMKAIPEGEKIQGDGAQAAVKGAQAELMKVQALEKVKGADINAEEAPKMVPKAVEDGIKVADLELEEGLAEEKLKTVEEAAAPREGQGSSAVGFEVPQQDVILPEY

Protein kinase C eta type (Homo sapiens), sequence (P24723 whole entry): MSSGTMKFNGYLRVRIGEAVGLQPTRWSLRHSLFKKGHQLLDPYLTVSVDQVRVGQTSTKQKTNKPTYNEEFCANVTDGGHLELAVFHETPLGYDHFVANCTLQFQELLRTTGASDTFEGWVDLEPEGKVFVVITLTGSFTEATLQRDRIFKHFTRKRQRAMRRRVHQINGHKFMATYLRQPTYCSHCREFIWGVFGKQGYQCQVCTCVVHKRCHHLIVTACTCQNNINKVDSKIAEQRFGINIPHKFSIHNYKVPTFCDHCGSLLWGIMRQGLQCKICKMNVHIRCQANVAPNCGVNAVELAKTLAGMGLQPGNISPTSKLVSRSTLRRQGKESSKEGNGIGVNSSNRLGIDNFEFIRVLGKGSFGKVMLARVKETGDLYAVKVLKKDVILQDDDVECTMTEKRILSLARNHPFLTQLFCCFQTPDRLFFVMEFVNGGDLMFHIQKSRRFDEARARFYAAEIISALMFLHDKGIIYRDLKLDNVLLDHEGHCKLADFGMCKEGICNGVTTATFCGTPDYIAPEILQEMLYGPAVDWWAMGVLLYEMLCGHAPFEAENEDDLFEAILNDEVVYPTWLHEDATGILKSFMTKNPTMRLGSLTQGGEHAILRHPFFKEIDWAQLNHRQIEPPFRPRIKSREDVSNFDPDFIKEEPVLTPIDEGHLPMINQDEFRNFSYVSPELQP
Histamine H2 receptor (Homo sapiens), sequence (P25021 whole entry): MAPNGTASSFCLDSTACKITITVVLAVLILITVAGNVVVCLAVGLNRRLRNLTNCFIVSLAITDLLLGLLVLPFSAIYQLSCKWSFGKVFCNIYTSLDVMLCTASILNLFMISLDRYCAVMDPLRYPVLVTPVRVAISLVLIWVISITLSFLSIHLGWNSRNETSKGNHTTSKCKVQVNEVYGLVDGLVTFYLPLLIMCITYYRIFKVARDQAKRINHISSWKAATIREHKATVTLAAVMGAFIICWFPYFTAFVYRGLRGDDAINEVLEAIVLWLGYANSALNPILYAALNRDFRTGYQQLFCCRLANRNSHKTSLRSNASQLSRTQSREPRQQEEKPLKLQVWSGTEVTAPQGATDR

% of control [1]: 7.22%
Compound: Cn1cc(-n2cnc3c(NCc4nc5cc(Cl)c(Cl)cc5[nH]4)nc(N4CCOCC4)nc32)cn1

Compound: O=C(NOC[C@H](O)CO)c1ccc(F)c(F)c1Nc1ccc(I)cc1F
% of control [2]: 86%

Compound: Cc1cc(C)cc([C@@H]2c3cc(C)ccc3NC(=O)CN2C(=O)c2ccc(Br)s2)c1
% of inhibition [3]: -18%

Compound: COc1cc(Nc2nc(C)cc(-c3cnn4nc(OC)ccc34)n2)cc(C(F)(F)F)c1
% of control [4]: 89%

Compound: CN(C)C/C=C/C(=O)Nc1ccc(C(=O)N2CCCC(Nc3ncc(Cl)c(-c4c[nH]c5ccccc45)n3)C2)cc1 (stereo not drawn)
% of control [5]: 91%

Compound: CCC(=O)N1CCN(c2ccc(-n3c(=O)ccc4cnc5ccc(-c6cnc7ccccc7c6)cc5c43)cc2C(F)(F)F)CC1
% of control [6]: 71%

Compound: Cc1cc([C@@H](C)Nc2ccccc2C(=O)O)c2nc(N3CCOCC3)cc(=O)n2c1 [AZD-6482]
% of control [7]: 82%

Compound: O[C@H]1CC[C@H](Nc2ncc3nc(Nc4c(F)cc(F)cc4F)n([C@H]4CCOC4)c3n2)CC1
% of control [8]: 87%
